# In US20240083998A1, “PREVENTION AND TREATMENT OF STEROID-RESISTANT OR GUT GRAFT-VERSUS-HOST DISEASE (GVHD)” (CIY OF HOPE, priority 2021, published 2024):
# Test system: BALB/c recipients
# Description: Splenocytes and T cell depleted bone marrow cells from donors were injected via tail vein into recipients 6-8 hours after irradiation. […] Depletion of T cells from the bone marrow was accomplished by using biotin-conjugated anti-CD4 and anti-CD8 mAbs, and streptavidin Microbeads (Miltenyi Biotec, Germany), followed by passage through an autoMACS Pro cell sorter (Miltenyi Biotec, Germany). Microbeads (Ly-2, Miltenyi Biotec, Germany) were used for to purify CD8^+T cell, and purity was>99%. The assessment and scoring of clinical signs of GVHD have been described in previous publications^60.
# ELISA: Reg3γ(antibodies online), ST2 (R&D system) and sTNFR1 (Thermo Scientific) in serum were measured by enzyme-linked immune sorbent assay (ELISA) according to manufacturer's protocol. Serum was collected and spun down at 2000 rpm for 10 min at 4° C. Clear supernatant was collected and stored at −20° C. until ELISA analysis. […]
# Histological analysis: Tissue specimens were fixed in formalin before embedding in paraffin blocks, sectioned and stained with H&E. Slides were examined at 100× or 200× magnification and visualized with a Zeiss Observer II. […] For Paneth cell quantification, a total of 9 pictures from 3 different locations of the H&E-stained slides from one mouse were taken under 200× magnification, and total Paneth cell and crypt numbers were counted, Paneth cell numbers per crypt are shown. […]
compound,measurement,setting,value
"C[C@@H]1C[C@H]2[C@@H]3CCC4=CC(=O)C=C[C@]4(C)[C@@]3(F)[C@@H](O)C[C@]2(C)[C@@]1(O)C(=O)CO [DEX, Dexamethasone]",IL-17A+IL-22−CD4+Th17 and IL-17A+IL-22−CD8+Tc17 cells among CD4+ and CD8+T cells,"recipients treated with DEX, 7 days after HCT",1-5%
same,survival after HCT,"single injection 5 mg/Kg on day 3 (1-DEX), mild clinical GVHD",up to 20 days
